The test system of one test is human bronchial tissue. In words: μOCT imaging of airway epithelial function in human bronchial tissue. The procedure: FIGS. 6A-6C show the effects of CFTR activators on airway epithelial function in human bronchial tissue by μOCT. FIGS. 6A-6C show ASL depth (FIG. 6A), CBF (FIG. 6B) and MCT (FIG. 6C), respectively in response to ivacaftor treatment (10 μM).
To further investigate the role of CFTR activators in modulating airway epithelial cell function, CFTR activators were studied in combination with human bronchial tissue from a failed healthy donor. Human bronchial tissue was obtained and maintained as described herein. Control experiments were performed with the human bronchial tissue being exposed to DMSO control only (0.2%) and compared to ivacaftor treatment. FIGS. 6A-6C show ASL depth, CBF and MCT, respectively.
Samples of human trachea tissue were obtained from normal donor explant organs not selected for lung transplantation. Lung, mainstem bronchi, and trachea were resected en-bloc, transferred on wet ice, and large airways excised. Airway tissues were then immersed in ice cold DMEM following resection for transfer, then allowed to equilibrate to room temperature prior to mOCT imaging.
The μOCT system is a spectral-domain OCT implementation with several improvements to standard OCT that yield high resolution in both lateral and axial directions. The general layout and axial resolution characterization have been described (Liu et al., PLOSOne, 8(1), E54473-2013). A super-continuum source (Fianium SC450) provides the high-bandwidth, short coherence length light necessary for high axial resolution ([…]). […]
μOCT imaging was performed on various cells cultures with illumination incident on the apical side of the cells. […] ASL and PCL were measured directly from the thicknesses of the visible layers in the image with a correction applied for the index of refraction in the liquid (n=1.33). ASL and PCL were evaluated at 5 equally distributed regions of the image. CBF and MCT were determined from a time series of images. […] Up to 10 regions of ciliary activity per image sequence were assessed for CBF. […]

The target of the next test is T1, WT-CFTR (Homo sapiens, UniProt P13569).
T1 construct: expressed in transfected cells
Kind of test: Short-circuit current (Isc) in Ussing chambers, CFBE41o- cells with stable WT-CFTR expression. In kind it is cell-based. As to conditions: ivacaftor 10 μM after amiloride 100 μM and forskolin 100 nM, Cl- secretory gradient; CFBE41o- with stable WT-CFTR (FIG. 1A). As to the method: CFBE41o-cells complemented by stable expression of WT-CFTR (by a lentivirus promoter) are shown in comparison to CFBE41o-cells without WT CFTR complementation (parental cells). *P<0.05, **P<0.005, n=5/condition.
The CFTR potentiator ivacaftor was chosen as an exemplary CFTR activator. The activity of ivacaftor was examined in WT-CFTR expressing cells.
Short-circuit current (Isc) was measured under voltage clamp conditions using MC8 voltage clamps and P2300 Ussing chambers (Physiologic Instruments, San Diego, Calif.) as previously described (2). Monolayers were initially bathed on both sides with identical Ringer's solutions containing (in mM) 115 NaCl, 25 NaHCO3, 2.4 KH2PO4, 1.24 K2HPO4, 1.2 CaCl2, 1.2 MgC2, 10 D-glucose (pH 7.4). Bath solutions were vigorously stirred and gassed with 95%02:5% CO2. Short-circuit current measurements were obtained using an epithelial voltage clamp (Physiologic Instruments). A one-second three-mV pulse was imposed every 10 seconds to monitor resistance calculated using Ohm's law. Where indicated, the mucosal bathing solution was changed to a low Cl-solution containing 1.2 NaCl and 115 Na+ gluconate, and all other components as above. Amiloride (100 μM) was added to block residual Na+ current, followed by the agonists forskolin, ivacaftor, and ATP as indicated (minimum five-min observation at each concentration). […]

T1 sequence (P13569 whole entry): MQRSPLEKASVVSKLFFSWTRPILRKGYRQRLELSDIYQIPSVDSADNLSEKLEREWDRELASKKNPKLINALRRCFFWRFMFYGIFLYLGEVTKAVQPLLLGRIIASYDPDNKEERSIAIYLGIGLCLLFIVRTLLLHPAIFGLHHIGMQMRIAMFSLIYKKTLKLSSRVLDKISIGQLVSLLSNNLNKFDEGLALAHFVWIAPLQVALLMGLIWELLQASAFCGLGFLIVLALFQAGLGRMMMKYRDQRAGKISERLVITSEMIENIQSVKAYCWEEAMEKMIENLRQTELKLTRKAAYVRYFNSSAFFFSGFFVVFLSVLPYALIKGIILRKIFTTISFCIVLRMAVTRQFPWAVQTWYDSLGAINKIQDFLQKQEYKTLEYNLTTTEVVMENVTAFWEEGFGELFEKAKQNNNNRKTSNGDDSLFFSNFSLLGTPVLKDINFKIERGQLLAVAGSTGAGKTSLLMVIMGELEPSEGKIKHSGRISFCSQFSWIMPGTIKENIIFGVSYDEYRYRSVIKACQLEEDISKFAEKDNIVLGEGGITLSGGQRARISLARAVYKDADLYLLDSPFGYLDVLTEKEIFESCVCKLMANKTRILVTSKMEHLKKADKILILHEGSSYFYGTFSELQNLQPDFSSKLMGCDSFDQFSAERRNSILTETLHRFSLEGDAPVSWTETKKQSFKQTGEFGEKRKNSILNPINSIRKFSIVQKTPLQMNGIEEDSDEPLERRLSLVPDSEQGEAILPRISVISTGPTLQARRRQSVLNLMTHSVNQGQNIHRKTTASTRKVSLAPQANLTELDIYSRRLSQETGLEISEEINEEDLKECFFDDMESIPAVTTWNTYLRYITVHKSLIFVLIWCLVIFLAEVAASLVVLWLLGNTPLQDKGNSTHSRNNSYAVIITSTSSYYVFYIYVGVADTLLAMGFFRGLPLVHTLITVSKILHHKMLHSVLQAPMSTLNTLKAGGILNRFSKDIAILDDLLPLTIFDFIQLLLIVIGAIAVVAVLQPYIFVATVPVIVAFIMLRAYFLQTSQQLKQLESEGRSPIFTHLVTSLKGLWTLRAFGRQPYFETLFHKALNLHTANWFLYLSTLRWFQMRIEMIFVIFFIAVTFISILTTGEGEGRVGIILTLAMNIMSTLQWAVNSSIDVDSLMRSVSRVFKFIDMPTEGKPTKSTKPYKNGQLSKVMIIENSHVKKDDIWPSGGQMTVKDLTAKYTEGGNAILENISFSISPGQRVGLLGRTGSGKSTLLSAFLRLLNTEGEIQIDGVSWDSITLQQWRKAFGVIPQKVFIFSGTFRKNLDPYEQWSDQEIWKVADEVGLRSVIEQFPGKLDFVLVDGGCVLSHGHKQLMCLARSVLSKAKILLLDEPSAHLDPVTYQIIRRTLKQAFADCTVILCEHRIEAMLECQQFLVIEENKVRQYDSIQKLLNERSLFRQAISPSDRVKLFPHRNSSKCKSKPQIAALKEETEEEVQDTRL

On to `CC(C)(C)c1cc(C(C)(C)C)c(NC(=O)c2c[nH]c3ccccc3c2=O)cc1O` [ivacaftor], for which the CBF frequency entry with human bronchial tissue (ivacaftor 10 μM vs DMSO control (FIG. 6B)) is given as “significantly increased”. For the same compound, in the test with human bronchial tissue (ivacaftor 10 μM, DMSO control approximately 10 microns (FIG. 6A)), the ASL depth entry is reported as “approximately 30 microns”. Also, the MCT in the test with human bronchial tissue (ivacaftor 10 μM, control less than 0.01 mm/min (FIG. 6C)) is listed as approximately 0.04 mm/min. Also, the “anion transport (Isc)” value at WT-CFTR is “robust increases”.

The values are drawn from US10300052B2, “Methods for increasing CFTR activity” (THE UAB RESEARCH FOUNDATION, priority 2012, dated 2019).
